{"source": "paper PMC3689638", "about": "“Cell cycle-dependent activity of the novel dual PI3K-MTORC1/2 inhibitor NVP-BGT226 in acute leukemia” (Molecular Cancer, 2013)", "system": "AKT phosphorylation (Ser473, Thr308)", "assay": "western immunoblot of AKT signaling, MOLM14 or K562 cells", "type": "cell-based, human", "source_text": "For comparative analysis, additional lysates from cells treated with an ABL1 or FLT3 tyrosine kinase inhibitor (imatinib for K562 BCR-ABL1 cells, sunitinib for MOLM14 FLT3 ITD cells) as well as rapamycin were used.\nRabbit anti-panAKT, panFLT3, panABL1 or anti-cleaved caspase 3 antibodies were used at a 1:500 to 1:1000 dilution. Rabbit anti-phospho-AKT antibodies detecting phosphorylated isoforms of T308-AKT, S473-AKT, S807/811-RB, S575-ULK1, T389-p70S6K, Y694-STAT5, FLT3, ABL1 or T202/Y204-ERK1/2 were used at a 1:250 to 1:1000 dilution. An anti-actin mouse monoclonal antibody was used as a loading control. All antibodies, if not otherwise indicated, were purchased from Cell Signaling Technology.\nCell pellets were lysed with 100 to 150 μl of protein lysis buffer (50 mmol/L Tris, 150 mmol/L NaCl, 1% NP40, 0.25% deoxycholate with added inhibitors aprotinin, AEBSF, leupeptin, pepstatin, sodium orthovanadate, and sodium pyruvate, respectively phosphatase inhibitor cocktails „2“ and „1“ or „3“ (Sigma, St. Louis, MO). Protein from cell lysates (75 to 200 μg protein) was used for whole cell protein analysis after denaturing by Western immunoblot assays using a BioRad Criterion system. Nonspecific binding was blocked by incubating the blots in nonfat dry milk or BSA. Primary antibodies were incubated for one hour or over night, followed by several washes of Tris-buffered saline (TBS) containing 0.005% Tween 20. The appropriate secondary antibody was applied for 30‘, followed by several washes. Antibody-reactive proteins were detected using a LI-COR Odyssey® fluorescence optical system."}
{"molecule": "CO[C@H]1C[C@@H]2CC[C@@H](C)[C@@](O)(O2)C(=O)C(=O)N2CCCC[C@H]2C(=O)O[C@H]([C@H](C)C[C@@H]2CC[C@@H](O)[C@H](OC)C2)CC(=O)[C@H](C)/C=C(\\C)[C@@H](O)[C@@H](OC)C(=O)[C@H](C)C[C@H](C)/C=C/C=C/C=C/1C", "note": "[rapamycin]", "values": [{"measurement": "phosphorylation of AKT (immunoblot)", "value": "did not suppress AKT phosphorylation"}]}
